In patent US11241442B2, “Methods of use for TRP channel antagonist-based combination cancer therapies” (President and Fellows of Harvard College, priority 2017, dated 2022):

What was measured:
Type in all cases: cell-based
TRPA1 [1] = assay: [Ca2+]i by fura-2 in TRPA1-expressing MCF-10A 3D acini; conditions: inner ECM-deprived region of MCF-10A acini
Experimental: (§1) For the measurement of [Ca^2+]i levels in cells cultured in 2D or 3D (in Matrigel), cells were stained with 3.5 μM fura-2-AM (Life Technology) in the presence of 2.5 mM probenecid (Sigma) and 0.02% Pluronic F-127 (Sigma) for 45 min at 37° C. The fura-2 fluorescence was measured in HBS solution containing 1.25 mM probenecid at 37° C. Fluorescence images of the cells were acquired through the Eclipse Ti-E microscope with ORCA-R2 cooled CCD camera and analyzed with Metafluor. The 340:380-nm ratio images were obtained on a pixel-by-pixel basis and were converted to Ca^2+ concentrations by in vivo calibration using 5 μM ionomycin as described previously (Nishida et al., Biochem. Biophys. Res. Commun., 262:350-354, 1999). 3D images are shown as one section from midstructure. For the measurement of [Ca^2+]i levels in cells cultured in suspension, cell clumps were dissociated with trypsin and [Ca^2+]i levels were determined by using Fluo-4 NW Calcium Assay Kit (Molecular Probes). Cells were stained with Fluo-4 according to the manufacturer's instructions and subjected to flow cytometric analysis (FACSCalibur) using HBS as sheath fluid. [Ca^2+]i levels determined by flow cytometry are reported as mean fluorescence intensity expressed in arbitrary units. Time courses of [Ca^2+]i rises in 2D culture are representative of three independent experiments and averaged Δ[Ca^2+]i represents mean±SEM from the sum of three independent experiments. Fura-2 ratio images in 3D culture are representative of two independent experiments and averaged [Ca^2+]i in 3D culture represents mean±SEM from the sum of two independent experiments.

EL-12-58 cells [2] = assay: Live cell number and cell death under H2O2 in EL-12-58 cells; conditions: 10 μM AP-18; H2O2 for 72 h
Experimental: (§2) For the measurements of live cell number and cell death under treatment with H2O2, diamide, or chemotherapies, cells were cultured on 96-well plates in the presence or absence of these drugs for indicated times and stained with 5 μM bisBenzimide H 33342 trihydrochloride (Hoechst; Sigma) and 5 μM propidium iodide (PI; Sigma) for 1 h at 37° C. Hoechst- and/or PI-positive cells were counted using a laser scanning cytometer, Acumen Cellista (TTPLabTech). Apoptotic cells induced by H2O2 treatment were measured by staining with Annexin V-Alexa Fluor® 488 conjugate (Life Technologies) and PI in Ca^2+-containing solution (10 mM HEPES pH 7.4, 140 mM NaCl; 2.5 mM CaCl2), followed by flow cytometric measurement of fluorescence using a FACSCalibur. Flow cytometry plots are representative of three independent experiments. […] Viable cells were counted using the Countless Automated Cell Counters (Thermo Fisher Scientific). […] Hoechst- and/or PI-positive areas were measured using Acumen Cellista. Apoptotic cells induced by detachment were measured by staining with 5 μM Hoechst and 5 μM of CellEvent™ Caspase-3/7 Green Detection Reagent (Thermo Fisher Scientific) for 1 h at 37° C. without enzymatic dissociation of cell clumps. Hoechst- and/or CellEvent™ Caspase-3/7 Green Detection Reagent-positive areas were measured using Acumen Cellista. […]

TRPA1 [3] = target: T1, TRPA1 (Homo sapiens, UniProt O75762); assay: [Ca2+]i by fura-2 in HCC1569 spheroids; conditions: AP-18, 300 nM A-967079 or 5 mM NAC
T1 construct: endogenous in cells; host or cells: HCC1569 breast cancer cells (2D culture or 3D spheroids; shGFP or shTRPA1 transduced)
Experimental: as §1

HCC1569 cells = assay: Soft agar anchorage-independent growth of HCC1569 cells
Experimental: Cells were added to the regular MCF-10A or HCC1569 growth media (±AP-18, A-967079, or Trolox) plus 0.4% low-melt agarose (Sigma) and layered onto a bed of growth media plus 0.5% low-melt agarose. Cells were fed every 4 days with growth media (±AP-18, A-967079, or Trolox) plus 0.4% low-melt agarose. At the indicated times, viable colonies were stained with iodonitrotetrazolium chloride (Sigma). Colony number and colony size were determined using ImageJ. Images shown are representative of at least three independent experiments.

TRPA1 [4] = target: T1, TRPA1; assay: Ca2+ responses to carboplatin in HCC1569 cells; conditions: 10 μM AP-18 or 300 nM A-967079
Experimental: as §1

EL-12-58 cells [5] = assay: Live cell number under carboplatin in EL-12-58 cells; conditions: 10 μM AP-18, carboplatin 72 h
Experimental: as §2

HCC70 = assay: Live cell number under carboplatin in HCC70 cells; conditions: 10 μM AP-18; carboplatin 72 h; HCC70, very low TRPA1
Experimental: as §2

MPNST cells = assay: H2O2- and carboplatin-induced cytotoxicity in MPNST cells; conditions: TRPA1 expression-dependent
Experimental: as §2

T1 sequence (O75762 whole entry): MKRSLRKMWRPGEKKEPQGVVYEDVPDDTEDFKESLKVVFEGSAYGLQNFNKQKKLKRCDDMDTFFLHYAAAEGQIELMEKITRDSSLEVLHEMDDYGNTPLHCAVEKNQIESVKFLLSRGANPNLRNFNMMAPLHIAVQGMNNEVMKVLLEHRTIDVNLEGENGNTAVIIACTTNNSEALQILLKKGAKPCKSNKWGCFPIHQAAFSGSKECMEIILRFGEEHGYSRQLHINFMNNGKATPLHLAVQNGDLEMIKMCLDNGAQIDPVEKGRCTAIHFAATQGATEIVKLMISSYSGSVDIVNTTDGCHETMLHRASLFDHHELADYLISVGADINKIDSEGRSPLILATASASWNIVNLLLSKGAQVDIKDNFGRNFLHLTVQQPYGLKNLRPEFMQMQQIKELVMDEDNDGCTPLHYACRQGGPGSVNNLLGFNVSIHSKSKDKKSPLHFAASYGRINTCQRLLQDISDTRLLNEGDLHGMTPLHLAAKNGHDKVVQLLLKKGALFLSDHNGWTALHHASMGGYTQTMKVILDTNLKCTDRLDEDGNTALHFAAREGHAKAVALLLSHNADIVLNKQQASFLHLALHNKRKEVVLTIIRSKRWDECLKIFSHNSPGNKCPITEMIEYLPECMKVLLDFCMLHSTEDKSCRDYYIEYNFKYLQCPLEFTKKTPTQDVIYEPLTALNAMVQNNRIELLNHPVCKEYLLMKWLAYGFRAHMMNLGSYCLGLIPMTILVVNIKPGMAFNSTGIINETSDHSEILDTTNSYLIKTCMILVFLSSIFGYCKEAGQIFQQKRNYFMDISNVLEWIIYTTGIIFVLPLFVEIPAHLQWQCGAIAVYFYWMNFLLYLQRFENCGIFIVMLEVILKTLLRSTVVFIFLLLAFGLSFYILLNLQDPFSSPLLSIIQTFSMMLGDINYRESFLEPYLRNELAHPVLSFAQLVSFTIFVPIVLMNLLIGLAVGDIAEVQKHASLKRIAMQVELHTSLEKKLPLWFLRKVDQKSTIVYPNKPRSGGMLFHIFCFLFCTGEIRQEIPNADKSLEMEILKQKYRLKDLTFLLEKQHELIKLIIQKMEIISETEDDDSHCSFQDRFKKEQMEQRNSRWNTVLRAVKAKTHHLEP
T1 sequence (O75762 682-1119 limits assumed): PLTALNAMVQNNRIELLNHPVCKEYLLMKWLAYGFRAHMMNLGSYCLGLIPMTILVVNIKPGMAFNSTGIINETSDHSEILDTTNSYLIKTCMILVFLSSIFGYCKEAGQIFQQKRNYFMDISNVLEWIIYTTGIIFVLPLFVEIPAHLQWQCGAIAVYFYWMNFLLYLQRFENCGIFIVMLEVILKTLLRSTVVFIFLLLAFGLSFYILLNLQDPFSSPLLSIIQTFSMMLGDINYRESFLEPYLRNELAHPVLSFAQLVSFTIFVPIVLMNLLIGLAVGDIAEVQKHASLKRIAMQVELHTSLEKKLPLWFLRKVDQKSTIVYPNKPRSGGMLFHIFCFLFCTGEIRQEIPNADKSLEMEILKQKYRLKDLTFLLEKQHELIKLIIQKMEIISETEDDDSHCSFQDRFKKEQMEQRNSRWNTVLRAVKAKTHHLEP

For AP-18, the “TRPA1- or E681K-induced [Ca2+]i rises” value (TRPA1 [1]) was “abolished”, the “sensitization to H2O2 cytotoxicity” value (EL-12-58 cells [2]) was “sensitized” and the “elevated [Ca2+]i of inner cells of spheroids” value (TRPA1 [3]) was “suppressed”. The “anchorage-independent growth (number and average size of colonies)” value (HCC1569 cells) was “impaired”, the “[Ca2+]i rises upon carboplatin treatment” value (TRPA1 [4]) was “significantly suppressed” and the “oscillatory Ca2+ responses upon carboplatin treatment” value (TRPA1 [4]) was “significantly suppressed”. The sensitization to carboplatin (EL-12-58 cells [5]) was “sensitized”, the sensitization to carboplatin (HCC70) was “minimal to no effect” and the “sensitization to carboplatin-induced cytotoxicity” value (MPNST cells; 10 μM AP-18, carboplatin 72 h) was “sensitized”. For the same substance, the “sensitization to H2O2-induced cytotoxicity” value (MPNST cells) was “sensitized”.
